Assay results taken from patent US20230257385A1, “SALT AND SOLID FORMS OF TABERNANTHALOG” (priority 2021, published 2023).

Assays:
[1] = Heat-up/cool-down crystallisation screen of sorbate salt (Example 10, Experiments 5, 8); assay type: physicochemical; conditions: Experiment 5; for Observations (t = 1 @ T = 20° C.): Tabernanthalog sorbate salt (Form A) crystallised from binary solvents, solvent A 3.0 vol plus solvent B, one pair per sample; for XRPD (oven dried @ 40° C., 20 h) / XRPD (centrifuged, wet): heat-up/cool-down crystallisation from binary solvents; for XRPD (centrifuged, wet): wet pellet
Procedure: The relevant solvent (0.225 ml, 3.0 vol) was added to the appropriate vial and the suspensions were stirred and warmed to temperature. If dissolution was not observed, further solvent was added until the solute dissolved, or aliquots of a secondary co-solvent were added to complete dissolution. Once dissolved, the solutions were left to cool down and stand undisturbed under sub-ambient conditions for several days. After crystallisation was judged complete, the products were isolated by centrifugation and the pellets were dried at 40° C. under reduced pressure. Products from the crystallisation (wet and dry) were initially analysed by XRPD (9-minute method), further analyses of certain products were performed by ^1H NMR, DSC and TGA, if the diffraction pattern indicated differences.

[2] = Solubility determinations in SIF buffers FaSSIF, FeSSIF, FaSSGF (Example 8, Experiment 5); conditions: tabernanthalog sorbate salt, t = 6 h in FaSSGF, 37° C.
Procedure: The temperature was maintained at 37° C. for 24 h. […] The suspensions were sampled at the relevant time points and centrifuged. The centrifuged pellets, obtained at the time points were analysed by XRPD as a wet pellet and dried, for evidence of form change.
The temperature was maintained at 37° C. for 24 h.
The suspension was sampled at the relevant time points and centrifuged. […] The centrifuged pellets, obtained at the time points were analyzed by XRPD as a wet pellet and dried, for evidence of form change.

[3] = Examination of variability of fusion temperature of sorbate Form A (DSC); assay type: physicochemical
Procedure: The factors that were assessed to explain the observed variability in fusion temperature found amongst Form A samples were sample loading, preferred orientation and particle size/homogeneity (Table 271). A weak relationship between sample loading and melt onset was observed, the remainder of the factors examined, appeared to be unrelated.
DSC data were collected from 25 to 220C at a scan rate of at 10° C. min^−1 (Table 292).

[4] = DVS 0 to 90 to 0% RH (mass equilibrated); assay type: physicochemical; conditions: batch 8-A4
[5] = DSC 25-220° C. at 10° C. min^−1, batches of sorbate salt Form A
[6] = DSC 25 to 220C at 10° C. min−1, tabernanthalog sorbate Form A samples
[7] = DSC melt endset, 25 to 220C at 10° C. min−1, tabernanthalog sorbate Form A samples
[8] = DSC melt peak, 25 to 220C at 10° C. min−1, tabernanthalog sorbate Form A samples

For `C/C=C/C=C/C(=O)O.COc1ccc2c3c([nH]c2c1)CCN(C)CC3` [Experiment 5-Sample E], the “Observations (t = 1 @ T = 20° C.)” value [1] was “Partial”, the “XRPD (oven dried @ 40° C., 20 h)” value [1] was “Form A” and the “XRPD (centrifuged, wet)” value [1] was “Form A”.
In the case of `CC=CC=CC(=O)O.COc1ccc2c3c([nH]c2c1)CCN(C)CC3` [Experiment 5-Sample R], the “Observations (t = 1 @ T = 20° C.)” value [1] is reported as “Liquid”, the “XRPD (oven dried @ 40° C., 20 h)” value [1] is reported as “Form A” and the “XRPD (centrifuged, wet)” value [1] is reported as “Pattern #4”.
In the case of `C/C=C/C=C/C(=O)O.COc1ccc2c3c([nH]c2c1)CCN(C)CC3` [Sample 5-L7], the “Tabernanthalog RRT = 1.00 (trended HPLC data, chemical purity)” value [2] is reported as 99.30.
In the case of `C/C=C/C=C/C(=O)O.COc1ccc2c3c([nH]c2c1)CCN(C)CC3` [Experiment 5-Sample F], the “Observations (t = 1 @ T = 20° C.)” value [1] is reported as “Partial”, the “XRPD (oven dried @ 40° C., 20 h)” value [1] is reported as “Form A” and the “XRPD (centrifuged, wet)” value [1] is reported as “Form A”.
`C/C=C/C=C/C(=O)O.COc1ccc2c3c([nH]c2c1)CCN(C)CC3` [Experiment 6-Sample E1] gave an Endset [3, 5] of 151.6 °C, a melt enthalpy [3, 5] of −105.7 Jg^−1 and a melt onset [3, 5] of 145.0 °C. It also gave a peak [3, 5] of 148.8 °C, a melt enthalpy [3, 6] of −105.68 Jg-1 and a melt onset [3, 6] of 145.00 °C. The Endset [3, 7] was 151.59 °C and the peak [3, 8] was 148.83 °C.
For `CC=CC=CC(=O)O.COc1ccc2c3c([nH]c2c1)CCN(C)CC3` [Experiment 5-Sample A], the “Observations (t = 1 @ T = 20° C.)” value [1] was “Partial”, the “XRPD (oven dried @ 40° C., 20 h)” value [1] was “Form A” and the “XRPD (centrifuged, wet)” value [1] was “Form A”.
With `C/C=C/C=C/C(=O)O.COc1ccc2c3c([nH]c2c1)CCN(C)CC3` [Experiment 5-Sample D] the “Observations (t = 1 @ T = 20° C.)” value [1] was “Liquid”, the “XRPD (oven dried @ 40° C., 20 h)” value [1] was “Form A” and the “XRPD (centrifuged, wet)” value [1] was “Form A”.
In the case of `C/C=C/C=C/C(=O)O.COc1ccc2c3c([nH]c2c1)CCN(C)CC3` [Experiment 5-Sample Q], the “Observations (t = 1 @ T = 20° C.)” value [1] is reported as “Solid”, the “XRPD (oven dried @ 40° C., 20 h)” value [1] is reported as “Form A” and the “XRPD (centrifuged, wet)” value [1] is reported as “Pattern #1”.
With `COc1ccc2c3c([nH]c2c1)CCN(C)CC3` [fumarate] the “DVS 0 to 90 to 0% RH (dm/dt <0.002%)” value ([4]; desorption, 5.0% RH) was 0.1179%, the “DVS 0 to 90 to 0% RH (dm/dt <0.002%)” value ([4]; desorption, 10.0% RH) was 0.1551% and the “DVS 0 to 90 to 0% RH (dm/dt <0.002%)” value ([4]; desorption, 15.0% RH) was 0.1857%. The “DVS 0 to 90 to 0% RH (dm/dt <0.002%)” value ([4]; desorption, 20.0% RH) was 0.2126%, the “DVS 0 to 90 to 0% RH (dm/dt <0.002%)” value ([4]; desorption, 25.0% RH) was 0.2387% and the “DVS 0 to 90 to 0% RH (dm/dt <0.002%)” value ([4]; desorption, 30.0% RH) was 0.2656%. The “DVS 0 to 90 to 0% RH (dm/dt <0.002%)” value ([4]; desorption, 40.0% RH) was 0.3210%, the “DVS 0 to 90 to 0% RH (dm/dt <0.002%)” value ([4]; desorption, 50.0% RH) was 0.3797% and the “DVS 0 to 90 to 0% RH (dm/dt <0.002%)” value ([4]; desorption, 60.0% RH) was 0.4515%. The “DVS 0 to 90 to 0% RH (dm/dt <0.002%)” value ([4]; desorption, 70.0% RH) was 0.5442%, the “DVS 0 to 90 to 0% RH (dm/dt <0.002%)” value ([4]; desorption, 80.0% RH) was 0.6827% and the “DVS 0 to 90 to 0% RH (dm/dt <0.002%)” value ([4]; desorption, 90.0% RH) was 0.9766%. For the same molecule, the “DVS 0 to 90 to 0% RH (dm/dt <0.002%)” value ([4]; sorption, 0.0% RH) was “DVS 0 to 90 to 0% RH (dm/dt <0.002%): 0.0 (0.0004%), 5.0”, the “DVS 0 to 90 to 0% RH (dm/dt <0.002%)” value ([4]; sorption, 5.0% RH) was 0.0627% and the “DVS 0 to 90 to 0% RH (dm/dt <0.002%)” value ([4]; sorption, 10.0% RH) was 0.0957%. For the same molecule, the “DVS 0 to 90 to 0% RH (dm/dt <0.002%)” value ([4]; sorption, 15.0% RH) was 0.1397%, the “DVS 0 to 90 to 0% RH (dm/dt <0.002%)” value ([4]; sorption, 20.0% RH) was 0.1778% and the “DVS 0 to 90 to 0% RH (dm/dt <0.002%)” value ([4]; sorption, 25.0% RH) was 0.2093%. The “DVS 0 to 90 to 0% RH (dm/dt <0.002%)” value ([4]; sorption, 30.0% RH) was 0.2401%, the “DVS 0 to 90 to 0% RH (dm/dt <0.002%)” value ([4]; sorption, 40.0% RH) was 0.3145% and the “DVS 0 to 90 to 0% RH (dm/dt <0.002%)” value ([4]; sorption, 50.0% RH) was 0.4051%. The “DVS 0 to 90 to 0% RH (dm/dt <0.002%)” value ([4]; sorption, 70.0% RH) was 0.5451%, the “DVS 0 to 90 to 0% RH (dm/dt <0.002%)” value ([4]; sorption, 80.0% RH) was 0.6660% and the “DVS 0 to 90 to 0% RH (dm/dt <0.002%)” value ([4]; sorption, 90.0% RH) was 0.9766%.
Work on `C/C=C/C=C/C(=O)O.COc1ccc2c3c([nH]c2c1)CCN(C)CC3` [Experiment 7-Sample A neat] yielded an Endset [3, 5] of 148.5 °C, a melt enthalpy [3, 5] of −122.5 Jg^−1 and a melt onset [3, 5] of 144.4 °C. For the same molecule, the peak [3, 5] was 146.8 °C, the melt enthalpy [3, 6] was −122.47 Jg-1 and the melt onset [3, 6] was 144.39 °C. It also gave an Endset [3, 7] of 148.53 °C and a peak [3, 8] of 146.83 °C.
With `C/C=C/C=C/C(=O)O.COc1ccc2c3c([nH]c2c1)CCN(C)CC3` [Experiment 5-Sample J] the “Observations (t = 1 @ T = 20° C.)” value [1] was “Partial”, the “XRPD (oven dried @ 40° C., 20 h)” value [1] was “Form A” and the “XRPD (centrifuged, wet)” value [1] was “Form A”.
In the case of `CC=CC=CC(=O)O.COc1ccc2c3c([nH]c2c1)CCN(C)CC3` [Experiment 5-Sample H], the “Observations (t = 1 @ T = 20° C.)” value [1] is reported as “Partial”, the “XRPD (oven dried @ 40° C., 20 h)” value [1] is reported as “Form A” and the “XRPD (centrifuged, wet)” value [1] is reported as “Form A”.
With `CC=CC=CC(=O)O.COc1ccc2c3c([nH]c2c1)CCN(C)CC3` [Experiment 5-Sample B] the “Observations (t = 1 @ T = 20° C.)” value [1] was “Solid”, the “XRPD (oven dried @ 40° C., 20 h)” value [1] was “Form A” and the “XRPD (centrifuged, wet)” value [1] was “Form A”.
